Test results taken from US8298555B2, “Color cosmetic compositions for topical anti-aging skin treatment” (Discovery Partners, LLC, priority 2007, dated 2012).

Experiment: stability of absorbance spectrum under intense pulsed light (IPL) flashes
Type: physicochemical
Conditions: ten pulses at the maximum power of the flash lamp
Text: Another aspect of the present invention is that controlled dissociation of the sodium-copper-chlorophyllin complex can occur in part because of the high stability of this complex. Normally, inorganic and organic copper salts, including copper-peptides, are not very stable with regard to binding copper. The inherent stability and lack of reactivity of sodium-copper-chlorophyllin is essential for this process to work successfully. […] Stability was monitored by measurement of the dye's full absorbance spectrum, since degradation of the dye would be detectable as changes in the absorbance spectrum.

Substance: sodium-copper-chlorophyllin
- absorbance spectrum after IPL exposure (thermal and light stability): remained unchanged
